One data set relates to CNE2. Description: MTT cytotoxicity assay, CNE2. It counts as cell-based. The conditions noted are these: mean ± SD. The procedure:
(§1) Prior to determining the combined inhibitory effects against NPC CDDP-resistance cells, the cytotoxicity effects of these 8 derivatives were evaluated against three NPC cell lines (CNE2, HONE1, and HK-1) and CDDP resistance cell line (CNE2/CDDP) by using MTT (3-(4,5-dimethyl-2-thiazolyl)-2,5-diphenyl-2-H-tetrazolium bromide) assays. […] Moreover, a liver normal cell LO2 was involved to evaluate the selectivity of these 8 compounds by using MTT assays.
(§2) Nasopharyngeal carcinoma cells (CNE2, HONE1, and CNE2/CDDP) were purchased from Shanghai Aulu Biological Technologh Co., Ltd. (Shanghai, China). HK-1 cell was purchased from Shanghai Shunran Biological Technologh Co., Ltd. CNE2, HONE1, and HK-1 were cultured in DMEM medium supplemented with 10% fetal bovine serum, 1% penicillin-streptomycin. CDDP-resistant NPC cell CNE2/CDDP was cultured in DMEM medium supplemented with CDDP to sustain its drug resistance. Cell viability was detected using the MTT assay. All the 8 derivatives were resolved with DMSO to make a storage solution at 1 M, and CDDP was resolved with phosphate buffer saline (PBS) to make a storage solution at 100 mM. The maximum concentrations of these 8 derivatives and CDDP used in MTT assays were set as 1 mM and 100 µM diluted with DMEM medium, respectively. Medium with 0.1% DMSO was set as control. To begin, an initial MTT assay was conducted to evaluate the cytotoxicity of 3a~3h with a dose range of 50, 100, 200, 400, and 800 µM. Then, a more precise dose range was set to calculate the IC50 of each compound (For 3a~3e: 50, 100, 200, 400, 600, and 800 µM; for 3f~3h: 12.5, 25, 50, 100, 200, and 400 µM). Then, 5000 cells were seeded in a 96-well plate for each well and treated with respective compounds at different concentrations for 72 h following additional treatment with MTT for 2~3 h. Then, MTT was removed and 150 µL DMSO was added into each well and the absorption values were measured at 490 nm using a SpectraMAX M5plate reader (Silicon Valley, CA, USA).

The next data set relates to HONE1. The experiment in a line: MTT cytotoxicity assay, HONE1. The class given is cell-based. The conditions noted are these: mean ± SD. The procedure:
as §1, §2
(In general: Tetrazolium dyes change colour on reduction, which living cells bring about.)

The next data set relates to HK-1. Description: MTT cytotoxicity assay, HK-1. It counts as cell-based. The note with it: mean ± SD. The procedure:
as §1, §2

Another data set concerns CNE2/CDDP. Description: MTT cytotoxicity assay, CNE2/CDDP. It counts as cell-based. The conditions noted are these: cisplatin resistant cell line, mean ± SD. On the procedure:
as §1, §2

Another data set concerns LO2. The experiment in a line: MTT cytotoxicity assay, LO2 normal liver cell. The note with it: mean ± SD. It counts as cell-based. On the procedure: as §1, §2
The subject of the next data set is CNE2/CDDP cells. The experiment in a line: Apoptosis assay (Annexin V-FITC/PI, FACS). The note with it: CDDP 4 µg/mL or 3f 40 µM alone, 24 h, three independent experiments, mean ± SD. The class given is cell-based. On the procedure: Subsequently, to further verify whether the synergistic effects of compound 3f with CDDP involved cell death, an apoptosis assay was conducted. CNE2/CDDP cells were co-treated with CDDP and compound 3f, or CDDP and 3f alone for 24 h. Then, cells were harvested for staining by using an apoptosis kit, following FACS detection (Figure 3a). Then, the data from three independent experiments were analyzed and the results were shown in the form of histogram (Figure 3b).
CNE2/CDDP cells (3 × 10^5) were seeded into a 6-well plate for each well. Twenty-four hours later, medium was removed and cells were treated with different compounds for […]. Then, cells were harvested, washed with cold PBS, and stained with Annexin V-FITC and PI for 15 min in dark. Finally, samples were analyzed by flow cytometer.
Figure 3 Compound 3f (40 µM) increased apoptosis rate of CDDP (4 µg/mL) in CNE2/CDDP cells. (a), representative apoptosis detection by FACS. (b), three independent experiments of apoptosis assays were analyzed and p-value was calculated. Data are represented as mean ± SD. Bar means SD value * p < 0.05, compared with CDDP; # p < 0.05, compared with 3f.

Data set [1] has as its system NPC cell lines (CNE2, HONE1, and HK-1) and CDDP resistance cell line (CNE2/CDDP). The experiment in a line: MTT cytotoxicity, summary over NPC cell lines and CDDP resistance cell line. It counts as cell-based. The conditions noted are these: range over CNE2, HONE1, HK-1 and CNE2/CDDP, read-out: IC50, anti-proliferative effects. On the procedure: as §1
Nasopharyngeal carcinoma cells (CNE2, HONE1, and CNE2/CDDP) were purchased from Shanghai Aulu Biological Technologh Co., Ltd. (Shanghai, China). HK-1 cell was purchased from Shanghai Shunran Biological Technologh Co., Ltd. CNE2, HONE1, and HK-1 were cultured in DMEM medium supplemented with 10% fetal bovine serum, 1% penicillin-streptomycin. CDDP-resistant NPC cell CNE2/CDDP was cultured in DMEM medium supplemented with CDDP to sustain its drug resistance. Cell viability was detected using the MTT assay. All the 8 derivatives were resolved with DMSO to make a storage solution at 1 M, and CDDP was resolved with phosphate buffer saline (PBS) to make a storage solution at 100 mM. […] Then, MTT was removed and 150 µL DMSO was added into each well and the absorption values were measured at 490 nm using a SpectraMAX M5plate reader (Silicon Valley, CA, USA).

For data set [2], the system named is leukemia, breast, and bladder cancer cells. The conditions noted are these: cited from earlier work.

These results are taken from article PMC7830115, “Design, Synthesis, Molecular Docking, and Tumor Resistance Reversal Activity Evaluation of Matrine Derivative with Thiophene Structure” (Molecules, 2021).

On to `S=C1/C(=C/c2csc3ccccc23)CC[C@@H]2[C@H]3CCCN4CCC[C@@H](CN12)[C@@H]34` [3a], for which the IC50 (in general, the concentration that gives 50% inhibition) in the data set with CNE2 (Homo sapiens, CNE-2, 72 h) was found to be 113 ± 7.2 µM; in the data set with HONE1 (Homo sapiens, HONE1, 72 h), 152 ± 8.4 µM; in the data set with HK-1 (HK-1, 72 h), 179 ± 12.1 µM; with CNE2/CDDP (Homo sapiens, CNE-2, 72 h), 375 ± 18.1 µM; in the data set on LO2 (Homo sapiens, L02, 72 h) it was 212 ± 15.3 µM.

Consider `S=C1/C(=C/c2cccs2)CC[C@@H]2[C@H]3CCCN4CCC[C@@H](CN12)[C@@H]34` [3b], for which the IC50 came to 158 ± 11.3 µM in the data set on CNE2 (Homo sapiens, CNE-2, 72 h); 125 ± 6.3 µM in the data set with HONE1 (Homo sapiens, HONE1, 72 h); 208 ± 9.4 µM in the data set with HK-1 (HK-1, 72 h); 583 ± 15.3 µM in the data set on CNE2/CDDP (Homo sapiens, CNE-2, 72 h); 156 ± 11.7 µM in the data set with LO2 (Homo sapiens, L02, 72 h).

For the compound `S=C1/C(=C/c2ccsc2)CC[C@@H]2[C@H]3CCCN4CCC[C@@H](CN12)[C@@H]34` [3c, 14-(thiophen-3-ylmethylene)thiomatrine], the melting point (in general, the temperature, or range, at which the solid turns liquid) was in the range of 166.8 to 167.5 °C. Moreover, in the data set on CNE2 (Homo sapiens, CNE-2, 72 h), inhibition was half-maximal at 144 ± 10.3 µM (IC50). In the data set with HK-1 (HK-1, 72 h), this compound yielded an IC50 of 191 ± 11.3 µM. For the same compound, half-maximal inhibition with CNE2/CDDP (Homo sapiens, CNE-2, 72 h) (IC50) required 676 ± 23.8 µM. Also, in the data set with LO2 (Homo sapiens, L02, 72 h), the IC50 stood at 285 ± 20.7 µM.

Consider `Cc1ccc(/C=C2\CC[C@@H]3[C@H]4CCCN5CCC[C@@H](CN3C2=S)[C@@H]45)s1` [3d, 14-((5-methylthiophen-2-yl)methylene)thiomatrine], for which the melting point fell in the range of 186.2 to 187.4 °C. In the data set on CNE2 (Homo sapiens, CNE-2, 72 h), this compound yielded an IC50 of 92.4 ± 6.5 µM. The compound also registered an IC50 in the data set with HONE1 (Homo sapiens, HONE1, 72 h) of 121 ± 7.7 µM. The IC50 in the data set on HK-1 (HK-1, 72 h) is 138 ± 9.4 µM. In the data set with CNE2/CDDP (Homo sapiens, CNE-2, 72 h), this compound had an IC50 of 294 ± 20.1 µM. Further, the IC50 in the data set with LO2 (Homo sapiens, L02, 72 h) turned out to be 138 ± 9.6 µM.

`Cc1ccsc1/C=C1\CC[C@@H]2[C@H]3CCCN4CCC[C@@H](CN2C1=S)[C@@H]34` [3e, 14-((3-methylthiophen-2-yl)methylene)thiomatrine] yielded a melting point of 193.6 to 195 °C. This compound registered an IC50 in the data set on CNE2 (Homo sapiens, CNE-2, 72 h) of 148 ± 5.6 µM. The same compound came in with an IC50 in the data set on HONE1 (Homo sapiens, HONE1, 72 h) of 185 ± 12.4 µM. The same compound showed an IC50 in the data set on HK-1 (HK-1, 72 h) of 180 ± 7.3 µM. In the data set with CNE2/CDDP (Homo sapiens, CNE-2, 72 h), this compound registered an IC50 of 452 ± 26.8 µM. The compound also returned an IC50 in the data set on LO2 (Homo sapiens, L02, 72 h) of 243 ± 12.7 µM.

Compound `S=C1/C(=C/c2cc(Br)cs2)CC[C@@H]2[C@H]3CCCN4CCC[C@@H](CN12)[C@@H]34` [3g, 14-((4-bromothiophen-2-yl)methylene)thiomatrine] came in with a melting point of 245.7 to 246.3 °C. Moreover, in the data set with CNE2 (Homo sapiens, CNE-2, 72 h), half-maximal inhibition (IC50) required 58.3 ± 2.9 µM. The compound further returned an IC50 with HONE1 (Homo sapiens, HONE1, 72 h) of 71.5 ± 4.2 µM. This compound also showed an IC50 with HK-1 (HK-1, 72 h) of 90.7 ± 6.6 µM. The compound further had an IC50 with CNE2/CDDP (Homo sapiens, CNE-2, 72 h) of 206 ± 11.7 µM. The compound also yielded an IC50 in the data set on LO2 (Homo sapiens, L02, 72 h) of 68 ± 5.1 µM.

With `S=C1/C(=C/c2ccc(Br)s2)CC[C@@H]2[C@H]3CCCN4CCC[C@@H](CN12)[C@@H]34` [3h, 14-((5-bromothiophen-2-yl)methylene)thiomatrine], the melting point was 239.9 to 240.6 °C. In the data set on CNE2 (Homo sapiens, CNE-2, 72 h), this compound came in with an IC50 of 76.2 ± 4.5 µM. For the same compound, in the data set on HONE1 (Homo sapiens, HONE1, 72 h), the IC50 is 89.7 ± 6.2 µM. Moreover, it took 103 ± 7.8 µM to reach half-maximal inhibition in the data set on HK-1 (HK-1, 72 h) (IC50). In the data set with CNE2/CDDP (Homo sapiens, CNE-2, 72 h), this compound returned an IC50 of 178 ± 15.8 µM. Further, the IC50 with LO2 (Homo sapiens, L02, 72 h) was 92 ± 8.6 µM.

For the compound `[NH2][Pt]([NH2])([Cl])[Cl]` [CDDP, Cisplatin, reference compound], the IC50 came out at 3.77 ± 0.26 µM with CNE2 (72 h); 5.23 ± 0.37 µM with HONE1 (72 h); 6.73 ± 0.42 µM in the data set on HK-1 (72 h); 29.5 ± 3.12 µM in the data set on CNE2/CDDP (72 h); 6.33 ± 0.56 µM in the data set on LO2 (72 h). Besides, the “cell apoptosis, treatment alone” value in the data set on CNE2/CDDP cells is on record as 7.58 ± 0.82.

Regarding `O=C1CCC[C@@H]2[C@H]3CCCN4CCC[C@@H](CN12)[C@@H]34` [Matrine], the IC50 was more than 1000 µM in the data set on CNE2 (Homo sapiens, CNE-2, 72 h); more than 1000 µM in the data set with HONE1 (Homo sapiens, HONE1, 72 h); more than 1000 µM in the data set on HK-1 (HK-1, 72 h); more than 1000 µM in the data set on CNE2/CDDP (Homo sapiens, CNE-2, 72 h); more than 1000 µM with LO2 (Homo sapiens, L02, 72 h); more than 1000 µM in data set [1]. In addition, in data set [2], the “dosage reversing drug resistance in vitro” value is “more than 1 mM”.
